In patent publication US20080319024A1, “Rosiglitazone Phosphate and Polymorphic Forms” (priority 2004, published 2008):

How the values were obtained:
[1] = comparator rosiglitazone maleate
[2] = Exposure of Form A to different relative humidities, water content by Karl Fischer; type: physicochemical
Method: The water content is determined by the Karl Fischer method.
5-[[4-[2-(methyl-2-pyridinylamino)ethoxy]phenyl]methyl]-2,4-thiazolidinedione phosphate hydrate in its polymorphic Form A was exposed to different relative humidities for about 24 hours.

[3] = Stress test at 80° C. in a closed vial, degradation determined by HPLC; type: physicochemical

Row | Compound | Solubility in water compared to rosiglitazone maleate [1] | Water content (Karl Fisher) ([2]; 45% relative humidity, about 24 hours) [% w/w] | Water content (Karl Fisher) ([2]; 63% relative humidity, about 24 hours) [% w/w] | Water content (Karl Fisher) ([2]; 86% relative humidity, about 24 hours) [% w/w] | Water content (Karl Fisher) ([2]; Initial, before exposure to humidity) [% w/w] | Stability (general statement) [3] | Degradation after stress test as determined by HPLC ([3]; 80° C., about 160 hours, closed vial)
1 | CN(CCOc1ccc(CC2SC(=O)NC2=O)cc1)c1ccccn1.O=P(O)(O)O (stereo not shown) [Form E, 5-[[4-[2-(methyl-2-pyridinylamino)ethoxy]phenyl]methyl]-2,4-thiazolidinedione phosphate] | comparable or even more expressed |  |  |  |  |  | 
2 | CN(CCOc1ccc(CC2SC(=O)NC2=O)cc1)c1ccccn1.O=P(O)(O)O (stereo not shown) [Form A, 5-[[4-[2-(methyl-2-pyridinylamino)ethoxy]phenyl]methyl]-2,4-thiazolidinedione phosphate] |  | 3.42 | 3.37 | 3.58 | 2.8 | good stability | no degradation
